In the NIST ThermoML archive (doi:10.1021/je400188h):
± gives the expanded uncertainty stated by the source.

Details: Crystal; visual observation

## O=C(O)[C@@H]1Cc2ccccc2N1 [(S)-indoline-2-carboxylic acid]
  Normal melting temperature: 177.00 ± 0.5 °C
